“Also recorded” adds a separate entry of the source.
Tests used:
PDE2 = PDE2 (Homo sapiens, UniProt O00408); assay: In vitro PDE2 enzymatic inhibition assay (Bio-cAMP substrate, AlphaScreen detection); assay type: biochemical; details: for PDE2 inhibitory activity (result in words): enzyme level;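 for all read-outs here: enzyme reaction run 0.5 h, then anti-cAMP acceptor and streptavidin donor beads added for 1 h in the dark before plate reading, compounds serially diluted from DMSO stock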
Experimental: Preparation of 1*Rection Buffer: we took 1 mL 10*Rection Buffer, added 9 mL ultra-pure water to swirl and mix well, and put it on ice; preparation of PDE2 solution: 210 μL of 1*Rection Buffer were added into a centrifuge tube, then 30 μL PDE2 were added, mixed well, equal to 8-times dilution, and placed on ice; preparation of compound solution with gradient concentration: DMSO was used as the solvent to prepare 10 mM compound solution, and then diluted with 1*Rection Buffer.
We took 2 μL of the diluted compound solution of each concentration into the microplate, added 4 μL PDE2 solution, numbered them A1–A9, added 2 μL 1*Rection Buffer and 4 μL PDE2 into A10, added 2 μL compound solution and 4 μL 1*Rection Buffer to A11, added 6 μL 1*Rection Buffer to A13, and ensured the three groups are parallel to each other. […] The reaction time was 0.5 h in the microporous plate thermostatic oscillator.
Anti-Camp Alohascreen Acceptor and Streptavidin Coated Donor Bead were purchased from Perkin Elmer Company according to response volume: 1* Immunoassay Buffer 549.32 μL and 3.70 μL anti-cAMP AlohaScreen Acceptor were collected under dark conditions. We took 1.98 μL Streptavidin coated Donor Bead, mixed well, added 15 μL mixture to each well after 1 h reaction, and reacted it in the dark for 1 h. After the reaction, we tested it with multilabel microplate detector.

[1] = in vitro, Bio-cAMP as substrate, mean of at least three experiments

Sequence of PDE2 (O00408 whole entry): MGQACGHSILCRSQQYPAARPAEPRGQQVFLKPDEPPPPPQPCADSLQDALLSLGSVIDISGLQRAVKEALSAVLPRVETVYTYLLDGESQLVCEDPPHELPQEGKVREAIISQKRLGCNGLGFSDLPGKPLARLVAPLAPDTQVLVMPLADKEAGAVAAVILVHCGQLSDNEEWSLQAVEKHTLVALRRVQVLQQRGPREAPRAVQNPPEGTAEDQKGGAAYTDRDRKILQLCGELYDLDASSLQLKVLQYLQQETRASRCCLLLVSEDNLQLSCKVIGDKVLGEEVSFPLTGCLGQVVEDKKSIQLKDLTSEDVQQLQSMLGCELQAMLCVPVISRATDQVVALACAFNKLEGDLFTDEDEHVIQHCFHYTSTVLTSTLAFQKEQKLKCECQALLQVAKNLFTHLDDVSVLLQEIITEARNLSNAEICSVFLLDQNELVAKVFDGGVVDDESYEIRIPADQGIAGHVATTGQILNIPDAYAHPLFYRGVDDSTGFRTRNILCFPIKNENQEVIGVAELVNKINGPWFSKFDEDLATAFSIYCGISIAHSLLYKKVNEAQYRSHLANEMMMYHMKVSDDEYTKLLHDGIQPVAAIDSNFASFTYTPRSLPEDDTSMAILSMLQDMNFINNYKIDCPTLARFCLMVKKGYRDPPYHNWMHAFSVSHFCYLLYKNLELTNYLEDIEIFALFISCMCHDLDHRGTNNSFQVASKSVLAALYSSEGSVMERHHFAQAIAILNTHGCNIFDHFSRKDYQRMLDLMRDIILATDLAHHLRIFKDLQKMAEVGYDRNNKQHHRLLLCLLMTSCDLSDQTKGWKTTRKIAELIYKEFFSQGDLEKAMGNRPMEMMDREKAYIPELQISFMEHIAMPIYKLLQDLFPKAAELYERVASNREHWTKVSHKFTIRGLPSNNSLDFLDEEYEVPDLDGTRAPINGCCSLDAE

| SMILES | IC50 (PDE2; [1]) [µM] | melting point [°C] | PDE2 inhibitory activity (result in words) (PDE2) | PDE2 IC50 (PDE2; [1]) |
| --- | --- | --- | --- | --- |
| COc1ccc2c(c1)oc(=O)c1ccccc12 [Compound 1a, 3-Methoxy-6H-benzo[c]chromen-6-one] | 28.8 ± 7.8 | – | – | – |
| CCOc1ccc2c(c1)oc(=O)c1ccccc12 [Compound 1b, Ethoxy-6H-benzo[c]chromen-6-one] | 25.4 ± 5.13 | 115.2 to 117.7 | – | – |
| CC(C)Oc1ccc2c(c1)oc(=O)c1ccccc12 [Compound 1c, 3-Isopropoxy-6H-benzo[c]chromen-6-one] | 25.8 ± 5.45 | 58.7 to 59.1 | – | – |
| CCCOc1ccc2c(c1)oc(=O)c1ccccc12 [Compound 1d, 3-Propoxy-6H-benzo[c]chromen-6-one] | > 50 | – | – | – |
| CCC(C)Oc1ccc2c(c1)oc(=O)c1ccccc12 (centres unmarked) [Compound 1e, 3-(Sec-butoxy)-6H-benzo[c]chromen-6-one] | 37.7 ± 4.9 | 73.2 to 75.8 | – | – |
| CCCCCOc1ccc2c(c1)oc(=O)c1ccccc12 [Compound 1g, 3-(pentyloxy)-6H-benzo[c]chromen-6-one] | > 50 | 69.4 to 71.8 | – | – |
| CCOC(=O)COc1ccc2c(c1)oc(=O)c1ccccc12 [Compound 1h, ethyl 2-((6-oxo-6H-benzo[c]chromen-3-yl)oxy)acetate] | 18.7 ± 2.72 | 124.7 to 125.8 | good PDE2 inhibitory activity | – |
| O=c1oc2cc(OCC3CCOCC3)ccc2c2ccccc12 [Compound 1i, 3-((tetrahydro-2H-pyran-4-yl)methoxy)-6H-benzo[c]chromen-6-one] | 17.9 ± 1.87 | 133 to 134.8 | good PDE2 inhibitory activity | – |
| O=c1oc2cc(OCCn3cccn3)ccc2c2ccccc12 [Compound 1k, 3-(2-(1H-pyrazol-1-yl)ethoxy)-6H-benzo[c]chromen-6-one] | > 50 | 164.3 to 166.6 | – | – |
| O=c1oc2cc(Oc3ncccn3)ccc2c2ccccc12 [Compound 1l, 3-(Pyrimidin-2-yloxy)-6H-benzo[c]chromen-6-one] | 19.3 ± 2.38 | 174 to 176.6 | good PDE2 inhibitory activity | – |
| O=c1oc2cc(OCCO)ccc2c2ccccc12 [Compound 1m, 3-(2-Hydroxyethoxy)-6H-benzo[c]chromen-6-one] | > 50 | 125.7 to 126.4 | – | – |
| O=c1oc2cc(OCC3CCCO3)ccc2c2ccccc12 (centres unmarked) [Compound 1n, 3-((Tetrahydrofuran-2-yl)methoxy)-6H-benzo[c]chromen-6-one] | 27.5 ± 1.49 | 82.8 to 84.1 | – | – |
| O=c1oc2cc(OCC3OCCO3)ccc2c2ccccc12 [Compound 1o, 3-((1,3-Dioxolan-2-yl)methoxy)-6H-benzo[c]chromen-6-one] | > 50 | 135.6 to 137.8 | – | – |
| COc1cc(COc2ccc3c(c2)oc(=O)c2ccccc23)cc(OC)c1 [Compound 1p, 3-((3,5-Dimethoxybenzyl)oxy)-6H-benzo[c]chromen-6-one] | > 50 | 133.8 to 135 | – | – |
| Cc1cc(COc2ccc3c(c2)oc(=O)c2ccccc23)n(C)n1 [Compound 1q, 3-((1,3-Dimethyl-1H-pyrazol-5-yl)methoxy)-6H-benzo[c]chromen-6-one] | > 50 | 165.1 to 167.6 | – | – |
| O=c1oc2cc(OCc3cccnc3)ccc2c2ccccc12 [Compound 1r, 3-(Pyridin-3-ylmethoxy)-6H-benzo[c]chromen-6-one] | 27.6 ± 2.14 | – | – | – |
| O=c1oc2cc(OCC3CCCC3)ccc2c2ccccc12 [Compound 1s, 3-(Cyclopentylmethoxy)-6H-benzo[c]chromen-6-one] | 8.14 ± 0.54 | 90.6 to 91.2 | good PDE2 inhibitory activity | – |
| O=c1oc2cc(OCc3ccc(CO)cc3)ccc2c2ccccc12 [Compound 1t, 3-((4-[Hydroxymethyl]benzyl)oxy)-6H-benzo[c]chromen-6-one] | > 50 | 147 to 149.2 | – | – |
| O=c1oc2cc(OCCN3CCOCC3)ccc2c2ccccc12 [Compound 1u, 3-(2-Morpholinoethoxy)-6H-benzo[c]chromen-6-one] | > 50 | 100.8 to 102.8 | – | – |
| COc1ccc2c(c1)oc(=O)c1cc(OC)ccc12 [Compound 2a, 3,8-Dimethoxy-6H-benzo[c]chromen-6-one] | > 50 | – | – | – |
| CCOc1ccc2c(c1)oc(=O)c1cc(OC)ccc12 [Compound 2b, 3-Ethoxy-8-methoxy-6H-benzo[c]chromen-6-one] | > 50 | 141.1 to 143.8 | – | – |

| SMILES | IC50 (PDE2; [1]) [µM] | melting point [°C] | PDE2 inhibitory activity (result in words) (PDE2) | PDE2 IC50 (PDE2; [1]) |
| --- | --- | --- | --- | --- |
| CCCOc1ccc2c(c1)oc(=O)c1cc(OC)ccc12 [Compound 2c, 8-Methoxy-3-propoxy-6H-benzo[c]chromen-6-one] | > 50 | 109.3 to 111.6 | – | – |
| CCC(C)Oc1ccc2c(c1)oc(=O)c1cc(OC)ccc12 (centres unmarked) [Compound 2d, 3-(Sec-butoxy)-8-methoxy-6H-benzo[c]chromen-6-one] | > 50 | 64.5 to 66.7 | – | – |
| CCCCOc1ccc2c(c1)oc(=O)c1cc(OC)ccc12 [Compound 2e, 3-Butoxy-8-methoxy-6H-benzo[c]chromen-6-one] | 17.8 ± 4.07 | 102.5 to 104.4 | good PDE2 inhibitory activity | – |
| CCCCCOc1ccc2c(c1)oc(=O)c1cc(OC)ccc12 [Compound 2f, 8-Methoxy-3-(pentyloxy)-6H-benzo[c]chromen-6-one] | > 50 | 73.1 to 75.5 | – | – |
| COc1ccc2c(c1)c(=O)oc1cc(OC(C)C)ccc12 [Compound 2g, 3-Isopropoxy-8-methoxy-6H-benzo[c]chromen-6-one] | 30.3 ± 7.38 | 88.3 to 90.7 | – | – |
| COc1ccc2c(c1)c(=O)oc1cc(OCCO)ccc12 [Compound 2h, 3-(2-Hydroxyethoxy)-8-methoxy-6H-benzo[c]chromen-6-one] | > 50 | 166.8 to 168 | – | – |
| COc1ccc2c(c1)c(=O)oc1cc(OCCSC)ccc12 [Compound 2i, 8-Methoxy-3-(2-(methylthio)ethoxy)-6H-benzo[c]chromen-6-one] | 14.9 ± 1.78 | 110.1 to 111.8 | best PDE2 inhibitory activity; also recorded: good PDE2 inhibitory activity | – |
| CCOC(=O)COc1ccc2c(c1)oc(=O)c1cc(OC)ccc12 [Compound 2j, Ethyl 2-((8-methoxy-6-oxo-6H-benzo[c]chromen-3-yl)oxy)acetate] | > 50 | – | – | – |
| COc1ccc2c(c1)c(=O)oc1cc(OCC3CCCC3)ccc12 [Compound 2k, 3-(Cyclopentylmethoxy)-8-methoxy-6H-benzo[c]chromen-6-one] | > 50 | – | – | – |
| COc1ccc2c(c1)c(=O)oc1cc(OCC3CCCO3)ccc12 (centres unmarked) [Compound 2l, 8-Methoxy-3-((tetrahydrofuran-2-yl)methoxy)-6H-benzo[c]chromen-6-one] | > 50 | 113.1 to 115.5 | – | – |
| COc1ccc2c(c1)c(=O)oc1cc(OCC3OCCO3)ccc12 [Compound 2m, 3-((1,3-Dioxolan-2-yl)methoxy)-8-methoxy-6H-benzo[c]chromen-6-one] | > 50 | 147.9 to 150.1 | – | – |
| COc1ccc2c(c1)c(=O)oc1cc(OCC3CCCCC3)ccc12 [Compound 2n, 3-(Cyclohexylmethoxy)-8-methoxy-6H-benzo[c]chromen-6-one] | > 50 | 139.8 to 140.1 | – | – |
| COc1ccc2c(c1)c(=O)oc1cc(OCCC3OCCO3)ccc12 [Compound 2o, 3-(2-(1,3-Dioxolan-2-yl)ethoxy)-8-methoxy-6H-benzo[c]chromen-6-one] | > 50 | 151.6 to 153.2 | – | – |
| COc1ccc2c(c1)c(=O)oc1cc(OCC3CCOCC3)ccc12 [Compound 2p, 8-Methoxy-3-((tetrahydro-2H-pyran-4-yl)methoxy)-6H-benzo[c]chromen-6-one] | 25.2 ± 6.91 | 168.1 to 168.5 | – | – |
| COc1ccc2c(c1)c(=O)oc1cc(OCc3ccccc3)ccc12 [Compound 2q, 3-(Benzyloxy)-8-methoxy-6H-benzo[c]chromen-6-one] | 23.3 ± 4.28 | 141.7 to 142.5 | – | – |
| COc1ccc2c(c1)c(=O)oc1cc(OCc3ccc(CO)cc3)ccc12 [Compound 2r, 3-((4-[Hydroxymethyl]benzyl)oxy)-8-methoxy-6H-benzo[c]chromen-6-one] | > 50 | 192.4 to 194.6 | – | – |
| COc1cc(COc2ccc3c(c2)oc(=O)c2cc(OC)ccc23)cc(OC)c1 [Compound 2s, 3-((3,5-Dimethoxybenzyl)oxy)-8-methoxy-6H-benzo[c]chromen-6-one] | > 50 | 153.6 to 155.3 | – | – |
| COc1ccc2c(c1)c(=O)oc1cc(OCc3ccccc3F)ccc12 [Compound 2t, 3-((2-Fluorobenzyl)oxy)-8-methoxy-6H-benzo[c]chromen-6-one] | – | 203.6 to 204.9 | – | Insoluble |
| COc1ccc2c(c1)c(=O)oc1cc(OCc3cc(C)nn3C)ccc12 [Compound 2u, 3-((1,3-Dimethyl-1H-pyrazol-5-yl)methoxy)-8-methoxy-6H-benzo[c]chromen-6-one] | 29.4 ± 5.01 | 184.6 to 186.6 | – | – |
| COc1ccc2c(c1)c(=O)oc1cc(Oc3ncccn3)ccc12 [Compound 2v, 8-Methoxy-3-(pyrimidin-2-yloxy)-6H-benzo[c]chromen-6-one] | – | 212.3 to 214 | – | – |
| COc1ccc2c(c1)c(=O)oc1cc(OCCn3cccn3)ccc12 [Compound 2w, 3-(2-(1H-pyrazol-1-yl)ethoxy)-8-methoxy-6H-benzo[c]chromen-6-one] | > 50 | 159 to 161.1 | – | – |
